A short description of assay [1]: Inhibition of TEM-1 (unknown origin) using nitrocefin as substrate preincubated 10 mins followed by substrate addition measured after 20 mins.
A short description of assay [2]: Inhibition of NDM-1 (unknown origin) using nitrocefin as substrate preincubated 10 mins followed by substrate addition measured after 20 mins.
Assay [3] is described as follows: Inhibition of TEM-1 (unknown origin) using nitrocefin as substrate preincubated 10 mins followed by substrate addition measured after 20 mins relative to control.
Assay [4] can be described thus: Time-dependent inhibition of recombinant NDM-1 C108D mutant (unknown origin) expressed in Escherichia coli BL21 (DE3) at 100 uM.
The nature of assay [5]: Time-dependent inhibition of wild type NDM-1 (unknown origin) expressed in Escherichia coli BL21 (DE3) at 100 uM.

This note sets out measurements from ChEMBL document CHEMBL2384921, “An altered zinc-binding site confers resistance to a covalent inactivator of New Delhi metallo-beta-lactamase-1 (NDM-1) discovered by high-throughput screening” (Bioorg Med Chem, 2013).

Calls of active or inactive are those of the source. The calls are words filed in the database; no cut-off is given here. Where only a bound is given, the exact number is not on record here.

As to `CCN(CC)C(=O)N[C@@H]1C[C@@H]2c3cccc4[nH]cc(c34)C[C@H]2N(C)C1`, the IC50 in assay [1] and in assay [2] was more than 30 µM each time.

As to `Nc1ccc2c3c(cccc13)C(=O)NC2=O`, the Imax in assay [3] came to 131%. For the same compound, the IC50 in assay [1] was 5.2 µM; in assay [2], 0.7 µM.

4-CHLOROMERCURIBENZOIC ACID: the IC50 in assay [1] is more than 30 µM; in assay [2], 2.3 µM.

Consider 4-[sequence] ACID, for which the inhibition result in assay [4] is “inactive”. In addition, the inhibition result in assay [5] was “Active”. In assay [3], the Imax was 8%.

`OCCN(CCO)c1nc(N2CCCCC2)c2nc(N(CCO)CCO)nc(N3CCCCC3)c2n1` [DIPYRIDAMOLE] displayed an Imax in assay [3] of 26%. The IC50 was more than 30 µM in assay [1] and more than 10 µM in assay [2].

With `Cc1c2ccncc2c(C)c2c1[nH]c1ccccc12` [ELLIPTECINE], the IC50 in assay [1] and in assay [2] was more than 30 µM throughout.

Take `CC(=O)[C@]1(O)Cc2c(O)c3c(c(O)c2[C@@H](O[C@H]2C[C@H](N)[C@H](O)[C@H](C)O2)C1)C(=O)c1ccccc1C3=O` [IDARUBICIN]: the Imax in assay [3] was 100%. In addition, the IC50 in assay [1] is 7.3 µM; in assay [2] it was 0.7 µM.

In assay [3], `Cn1cc(C2=C(c3ccc(Cl)cc3Cl)C(=O)NC2=O)c2ccccc21` [SB-216763] returned an Imax of 2%. The IC50 in assay [1] was more than 30 µM; in assay [2] it was 28 µM.

Broadly, the IC50 is the concentration needed to halve the response being measured.
